Measurements taken from patent publication US5098826A, “Detection, isolation and purification of Clostridium difficile toxin A with toxin receptors” (Virginia Tech Intellectual Properties, Inc., priority 1990, dated 1992).

What was measured:
toxin A = toxin A (Clostridioides difficile, UniProt P16154); conditions: cited from earlier work; for toxin A binding: Krivan et al., U.S. Pat. No. 4,863,852, Clark et al.
C. difficile toxin A = molecular target: T1, C. difficile toxin A (Clostridioides difficile, UniProt P16154); experiment: Crossed immunoelectrophoresis (X-IEP) toxin A binding assay; set-up: species or system Clostridium difficile; conditions: 100 μg toxin A mixed with 500 μg/ml conjugate, on ice 10 minutes, electrophoresis at 4° C., pH 8.6
T1 construct: The organism was cultured, and the toxin A was purified from the culture filtrate; made in house; host or cells: C. difficile VPI strain 10463 (natural producer, culture filtrate; not recombinant)
Protocol: 100 μg toxin A and 500 μg/ml of each of the oligosaccharide-HSA conjugates of Table 1 in PBS were mixed and incubated on ice for 10 minutes, then 5 μl of this mixture was assayed by X-IEP for toxin A binding on a 5×5 cm glass slide substantially as described by Lyerly et al., J. Clin. Microbiol. 17, 72-78 (1983). Briefly, wells (1 mm in diameter) were cut in gels composed of 1.2% (wt/vol) low electroendosmotic agarose (Sigma Chemical Co.) in 0.025M Tris-Tricine buffer (0.6 g agarose in 50 ml buffer) (pH 8.6). The Tris-Tricine buffer is prepared by combining the following and adding deionized water up to a volume of 1 L: Tris, 9.8 g; Ca-lactate, 0.106 g; Tricine, 4.3 g; NaN3, 0.2 g. For the first dimension, oligosaccharide-HSA sample (5 μl) was placed in a sample well in the lower corner of the plate. 0.1% bromphenol blue was placed in an upper corner well as a tracing dye, and the plate was subjected to electrophoresis at 10 V/cm at constant current and 4° C. The second dimension of the plate consisted of a 1.2% (wt/vol) agarose gel containing 0.1 ml of goat antiserum to C. difficile culture filtrate. Electrophoresis was performed at 10 V/cm for about 3 hours at 4° C. Gels were washed in 20 mM sodium phosphate with 130 mM NaCl, pH 7.4, stained with a staining solution (5 g Coomassie Blue R-250, 450 ml EtOH, […], and 450 ml deionized H2 O), and de-stained in the staining solution minus Coomassie Blue.
The principle behind the X-IEP assay is that the rate of migration of toxin A in an electric field is dependent on the net charge of the molecule, which is dependant on its isoelectric point and the pH of the electrophoresis medium. Toxin A has a slight negative charge at pH 8.6, which is the pH at which the X-IEP was carried out. The toxin migrates slowly in the applied electric field. HSA, on the other hand, has a relatively high net negative charge at pH 8.6. […]

Sequence of toxin A (P16154 whole entry, looked up): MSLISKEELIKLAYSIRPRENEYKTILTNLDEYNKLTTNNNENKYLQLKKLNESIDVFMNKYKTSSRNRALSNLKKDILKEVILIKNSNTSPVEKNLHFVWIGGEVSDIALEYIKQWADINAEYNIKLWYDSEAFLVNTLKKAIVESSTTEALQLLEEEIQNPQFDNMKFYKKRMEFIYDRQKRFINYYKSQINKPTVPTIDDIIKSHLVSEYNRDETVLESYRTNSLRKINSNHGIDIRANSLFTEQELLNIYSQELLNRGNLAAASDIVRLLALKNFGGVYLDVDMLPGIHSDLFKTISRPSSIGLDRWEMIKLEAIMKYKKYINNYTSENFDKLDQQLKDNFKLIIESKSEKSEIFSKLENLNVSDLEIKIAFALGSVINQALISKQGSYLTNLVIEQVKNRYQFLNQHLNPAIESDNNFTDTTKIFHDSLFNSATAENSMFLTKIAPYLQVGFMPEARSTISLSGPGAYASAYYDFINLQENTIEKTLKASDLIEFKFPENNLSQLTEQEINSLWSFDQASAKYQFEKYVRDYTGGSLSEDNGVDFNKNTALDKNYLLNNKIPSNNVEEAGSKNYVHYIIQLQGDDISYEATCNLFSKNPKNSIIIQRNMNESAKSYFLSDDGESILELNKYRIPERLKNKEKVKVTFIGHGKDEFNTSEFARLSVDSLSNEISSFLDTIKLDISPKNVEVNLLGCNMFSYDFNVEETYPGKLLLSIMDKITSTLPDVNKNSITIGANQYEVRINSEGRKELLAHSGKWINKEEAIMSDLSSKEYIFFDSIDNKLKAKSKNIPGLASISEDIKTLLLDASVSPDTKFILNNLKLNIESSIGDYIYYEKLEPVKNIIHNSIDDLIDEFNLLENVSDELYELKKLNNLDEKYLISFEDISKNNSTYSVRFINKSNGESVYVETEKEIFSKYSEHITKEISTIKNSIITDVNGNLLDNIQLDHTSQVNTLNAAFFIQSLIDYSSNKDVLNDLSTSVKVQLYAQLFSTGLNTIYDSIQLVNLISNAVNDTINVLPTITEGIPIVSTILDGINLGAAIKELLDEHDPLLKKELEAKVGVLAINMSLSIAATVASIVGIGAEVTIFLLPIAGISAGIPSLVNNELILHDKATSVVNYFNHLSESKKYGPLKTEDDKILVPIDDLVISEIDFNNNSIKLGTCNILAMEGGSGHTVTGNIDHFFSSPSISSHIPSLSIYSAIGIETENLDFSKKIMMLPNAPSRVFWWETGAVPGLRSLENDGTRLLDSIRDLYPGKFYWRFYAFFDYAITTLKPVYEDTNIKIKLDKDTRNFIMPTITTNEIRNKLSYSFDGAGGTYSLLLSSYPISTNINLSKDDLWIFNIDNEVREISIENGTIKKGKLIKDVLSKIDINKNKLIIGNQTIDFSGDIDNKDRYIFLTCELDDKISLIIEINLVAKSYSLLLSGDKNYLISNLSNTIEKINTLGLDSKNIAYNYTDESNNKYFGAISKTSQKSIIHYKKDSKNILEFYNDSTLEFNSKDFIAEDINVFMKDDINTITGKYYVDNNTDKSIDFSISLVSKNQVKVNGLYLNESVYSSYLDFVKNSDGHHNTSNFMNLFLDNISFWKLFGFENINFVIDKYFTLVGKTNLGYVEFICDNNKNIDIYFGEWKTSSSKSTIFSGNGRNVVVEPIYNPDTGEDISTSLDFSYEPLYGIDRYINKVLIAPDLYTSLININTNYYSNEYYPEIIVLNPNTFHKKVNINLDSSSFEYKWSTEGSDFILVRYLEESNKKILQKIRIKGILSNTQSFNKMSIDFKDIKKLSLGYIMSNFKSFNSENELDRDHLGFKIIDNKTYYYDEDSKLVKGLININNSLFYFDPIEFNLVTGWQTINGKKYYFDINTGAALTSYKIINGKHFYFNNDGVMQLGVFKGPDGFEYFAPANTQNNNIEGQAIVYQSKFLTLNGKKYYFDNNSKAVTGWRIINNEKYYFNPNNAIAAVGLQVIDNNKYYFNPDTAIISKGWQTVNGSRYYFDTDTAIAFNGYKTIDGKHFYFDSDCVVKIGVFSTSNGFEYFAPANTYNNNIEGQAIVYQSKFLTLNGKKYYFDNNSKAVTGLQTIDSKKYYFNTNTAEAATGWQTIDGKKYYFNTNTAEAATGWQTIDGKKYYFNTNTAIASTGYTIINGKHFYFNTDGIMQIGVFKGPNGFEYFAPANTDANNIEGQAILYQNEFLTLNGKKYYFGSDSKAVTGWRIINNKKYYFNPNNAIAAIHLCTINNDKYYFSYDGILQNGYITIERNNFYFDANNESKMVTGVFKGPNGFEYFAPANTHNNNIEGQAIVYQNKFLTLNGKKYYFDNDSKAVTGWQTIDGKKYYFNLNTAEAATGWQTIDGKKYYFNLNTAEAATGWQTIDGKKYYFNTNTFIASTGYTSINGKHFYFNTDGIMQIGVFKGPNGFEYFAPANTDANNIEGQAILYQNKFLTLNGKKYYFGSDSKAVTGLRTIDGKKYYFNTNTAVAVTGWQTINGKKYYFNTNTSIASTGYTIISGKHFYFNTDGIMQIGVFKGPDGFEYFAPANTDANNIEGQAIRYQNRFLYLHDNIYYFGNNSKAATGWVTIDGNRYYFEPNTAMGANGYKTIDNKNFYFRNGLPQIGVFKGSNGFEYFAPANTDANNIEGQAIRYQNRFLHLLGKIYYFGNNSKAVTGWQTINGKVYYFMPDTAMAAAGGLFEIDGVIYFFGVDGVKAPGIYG

CC(=O)N[C@H]1C(O)O[C@H](CO)[C@@H](O[C@@H]2O[C@H](CO)[C@H](O)[C@H](O[C@H]3O[C@H](CO)[C@H](O)[C@H](O)[C@H]3O)[C@H]2O)[C@@H]1O (some centres unmarked) [Galα(1→3)Galβ(1→4)GlcNAc]
toxin A binding at 37° C. (toxin A; 37° C., U.S. Pat. No. 4,863,852): not detected
toxin A binding (toxin A): binds
temperature of maximal binding of toxin A (toxin A; U.S. Pat. No. 4,863,852): 4 °C

CC(=O)N[C@H]1C(O)O[C@H](CO)[C@@H](O[C@@H]2O[C@H](CO)[C@H](O)[C@H](O[C@H]3O[C@H](CO)[C@H](O)[C@H](O)[C@H]3O)[C@H]2O[C@@H]2O[C@@H](C)[C@@H](O)[C@@H](O)[C@@H]2O)[C@@H]1O (some centres unmarked) [Galα(1→3)[Fucα-(1→2)]Galβ(1→4)GlcNAc, Galα(1→3)[Fucα(1→2)]Galβ(1→4)GlcNAc]
toxin A binding (toxin A): does not bind

CC(=O)N[C@H]1[C@H](O[C@H]2[C@@H](O)[C@@H](CO)O[C@@H](O[C@H]3[C@H](O)[C@@H](O)C(O)O[C@@H]3CO)[C@@H]2O)O[C@H](CO)[C@@H](O[C@@H]2O[C@H](CO)[C@H](O)[C@H](O)[C@H]2O)[C@@H]1O (some centres unmarked) [LNnT, Galβ(1→4)GlcNAcβ(1→3)Galβ(1→4)Glc]
toxin A binding (toxin A): prevents toxin A from binding
Toxin A Binding X-IEP (altered migration of toxin A) (C. difficile toxin A): did not bind the toxin

Secretory Component: human protein known to contain the X antigen
Toxin A Binding X-IEP (altered migration of toxin A) (C. difficile toxin A; listed as SC): same behavior

B1: Carcinoembryonic Antigen: human protein known to contain the X antigen (protein, UniProt P06731 35-685, looked up)
Cell adhesion molecule CEACAM5: KLTIESTPFNVAEGKEVLLLVHNLPQHLFGYSWYKGERVDGNRQIIGYVIGTQQATPGPAYSGREIIYPNASLLIQNIIQNDTGFYTLHVIKSDLVNEEATGQFRVYPELPKPSISSNNSKPVEDKDAVAFTCEPETQDATYLWWVNNQSLPVSPRLQLSNGNRTLTLFNVTRNDTASYKCETQNPVSARRSDSVILNVLYGPDAPTISPLNTSYRSGENLNLSCHAASNPPAQYSWFVNGTFQQSTQELFIPNITVNNSGSYTCQAHNSDTGLNRTTVTTITVYAEPPKPFITSNNSNPVEDEDAVALTCEPEIQNTTYLWWVNNQSLPVSPRLQLSNDNRTLTLLSVTRNDVGPYECGIQNELSVDHSDPVILNVLYGPDDPTISPSYTYYRPGVNLSLSCHAASNPPAQYSWLIDGNIQQHTQELFISNITEKNSGLYTCQANNSASGHSRTTVKTITVSAELPKPSISSNNSKPVEDKDAVAFTCEPEAQNTTYLWWVNGQSLPVSPRLQLSNGNRTLTLFNVTRNDARAYVCGIQNSVSANRSDPVTLDVLYGPDTPIISPPDSSYLSGANLNLSCHSASNPSPQYSWRINGIPQQHTQVLFIAKITPNNNGTYACFVSNLATGRNNSIVKSITVSASGTSPGLSA
Toxin A Binding X-IEP (altered migration of toxin A) (C. difficile toxin A; listed as CEA): same behavior
